Test results as given in PubChem BioAssay (NCI).
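Following 48 hours of exposure in 96-well plates, responses at five concentrations were used to interpolate endpoints linearly. GI50 marks 50% less growth. TGI is the concentration that stops growth completely.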

Assays:
Test in all cases: inhibition of tumour cell growth, NCI panel, 48 h
[1] = tested on: A498 renal
[2] = tested on: SF-295 CNS
[3] = tested on: MOLT-4 leukemia
[4] = tested on: U251 CNS
[5] = tested on: NCI-H23 lung
[6] = tested on: SK-MEL-28 melanoma
[7] = tested on: HCT-116 colon
[8] = tested on: NCI-H522 lung
[9] = tested on: OVCAR-3 ovarian
[10] = tested on: SR leukemia
[11] = tested on: M14 melanoma
[12] = tested on: BT-549 breast
[13] = tested on: HCT-15 colon
[14] = tested on: RPMI-8226 leukemia
[15] = tested on: OVCAR-5 ovarian
[16] = tested on: MDA-MB-231 breast
[17] = tested on: DU-145 prostate
[18] = tested on: KM12 colon
[19] = tested on: NCI-H460 lung
[20] = tested on: COLO 205 colon
[21] = tested on: OVCAR-4 ovarian
[22] = tested on: SF-268 CNS
[23] = tested on: UACC-62 melanoma
[24] = tested on: HOP-92 NSCLC
[25] = tested on: LOX IMVI melanoma
[26] = tested on: OVCAR-8 ovarian
[27] = tested on: SK-OV-3 ovarian
[28] = tested on: NCI/ADR-RES ovarian
[29] = tested on: UO-31 renal
[30] = tested on: HS 578T breast
[31] = tested on: MDA-MB-435
[32] = tested on: TK-10 renal
[33] = tested on: MALME-3M melanoma
[34] = tested on: SW-620 colon
[35] = tested on: PC-3 prostate
[36] = tested on: T-47D breast
[37] = tested on: SK-MEL-5 melanoma
[38] = tested on: SK-MEL-2 melanoma
[39] = tested on: HT29 colon
[40] = tested on: HL-60(TB) leukemia
[41] = tested on: HCC-2998 colon
[42] = tested on: A549 NSCLC
[43] = tested on: SNB-19 CNS
[44] = tested on: EKVX NSCLC
[45] = tested on: UACC-257 melanoma
[46] = tested on: SNB-75 CNS
[47] = tested on: NCI-H226 lung
[48] = tested on: K-562 leukemia
[49] = tested on: CCRF-CEM leukemia
[50] = tested on: IGROV1 ovarian
[51] = tested on: SN12C renal
[52] = tested on: HOP-62 NSCLC
[53] = tested on: RXF 393 renal
[54] = tested on: MCF7 breast
[55] = tested on: 786-0 renal
[56] = tested on: SF-539 CNS

For `COc1ccc(C2C(c3ccccc3)C(=O)N2c2cc(OC)c(OC)c(OC)c2)cc1I` (configuration not stated), the GI50 [1] was 241 nM, the TGI [1] was 777 nM and the GI50 [2] was 337 nM. The TGI [2] was over 100000 nM, the GI50 [3] was 337 nM and the TGI [3] was over 100000 nM. The GI50 [4] was 388 nM, the TGI [4] was over 100000 nM and the GI50 [5] was 623 nM. The TGI [5] was over 100000 nM, the GI50 [6] was 2310 nM and the TGI [6] was over 100000 nM. It also gave a GI50 [7] of 343 nM, a TGI [7] of 12400 nM and a GI50 [8] of 276 nM. The TGI [8] was 887 nM, the GI50 [9] was 280 nM and the TGI [9] was 802 nM. For the same compound, the GI50 [10] was 286 nM, the TGI [10] was over 100000 nM and the GI50 [11] was 301 nM. For the same compound, the TGI [11] was over 100000 nM, the GI50 [12] was 419 nM and the TGI [12] was 5360 nM. For the same compound, the GI50 [13] was 339 nM, the TGI [13] was over 100000 nM and the GI50 [14] was 422 nM. It also gave a TGI [14] of over 100000 nM, a GI50 [15] of 526 nM and a TGI [15] of over 100000 nM. It also gave a GI50 [16] of 455 nM, a TGI [16] of over 100000 nM and a GI50 [17] of 332 nM. For the same compound, the TGI [17] was 75400 nM, the GI50 [18] was 343 nM and the TGI [18] was over 100000 nM. For the same compound, the GI50 [19] was 337 nM, the TGI [19] was over 100000 nM and the GI50 [20] was 228 nM. It also gave a TGI [20] of 648 nM, a GI50 [21] of 709 nM and a TGI [21] of over 100000 nM. It also gave a GI50 [22] of 712 nM, a TGI [22] of over 100000 nM and a GI50 [23] of 458 nM. The TGI [23] was over 100000 nM, the GI50 [24] was 961 nM and the TGI [24] was over 100000 nM. It also gave a GI50 [25] of 457 nM, a TGI [25] of over 100000 nM and a GI50 [26] of 407 nM. For the same compound, the TGI [26] was over 100000 nM, the GI50 [27] was 395 nM and the TGI [27] was over 100000 nM. For the same compound, the GI50 [28] was 319 nM, the TGI [28] was over 100000 nM and the GI50 [29] was 693 nM. For the same compound, the TGI [29] was over 100000 nM, the GI50 [30] was 435 nM and the TGI [30] was over 100000 nM. The GI50 [31] was 209 nM, the TGI [31] was 644 nM and the GI50 [32] was over 100000 nM. The TGI [32] was over 100000 nM, the GI50 [33] was over 100000 nM and the TGI [33] was over 100000 nM. The GI50 [34] was 423 nM, the TGI [34] was over 100000 nM and the GI50 [35] was 488 nM. It also gave a TGI [35] of over 100000 nM, a GI50 [36] of over 100000 nM and a TGI [36] of over 100000 nM. It also gave a GI50 [37] of 224 nM, a TGI [37] of 729 nM and a GI50 [38] of 572 nM. For the same compound, the TGI [38] was over 100000 nM, the GI50 [39] was 344 nM and the TGI [39] was 90100 nM. It also gave a GI50 [40] of 225 nM, a TGI [40] of 533 nM and a GI50 [41] of 567 nM. For the same compound, the TGI [41] was over 100000 nM, the GI50 [42] was 479 nM and the TGI [42] was over 100000 nM. It also gave a GI50 [43] of 590 nM, a TGI [43] of over 100000 nM and a GI50 [44] of 658 nM. The TGI [44] was over 100000 nM, the GI50 [45] was over 100000 nM and the TGI [45] was over 100000 nM. It also gave a GI50 [46] of 6010 nM, a TGI [46] of over 100000 nM and a GI50 [47] of 15600 nM. The TGI [47] was over 100000 nM, the GI50 [48] was 339 nM and the TGI [48] was over 100000 nM. For the same compound, the GI50 [49] was 365 nM, the TGI [49] was over 100000 nM and the GI50 [50] was 580 nM. For the same compound, the TGI [50] was over 100000 nM, the GI50 [51] was 523 nM and the TGI [51] was over 100000 nM. The GI50 [52] was 570 nM, the TGI [52] was over 100000 nM and the GI50 [53] was 324 nM. The TGI [53] was over 100000 nM, the GI50 [54] was 336 nM and the TGI [54] was over 100000 nM. The GI50 [55] was 397 nM, the TGI [55] was over 100000 nM and the GI50 [56] was 234 nM. For the same compound, the TGI [56] was 657 nM.
